We go through six substances from patent US20120189673A1, “POLYPEPTIDES AND USES THEREOF” (priority 2009, published 2012).

Test [1] concerns the target C3a (complement anaphylatoxin C3a peptides in chronic wound fibrin slough) (human) (UniProt P01024). Nature of the test: double immunogold electron microscopy (C3a 10 nm, C-termini of TFPI 20 nm), evaluation of 50 bacterial profiles in wound fibrin slough.
In test [2] the test system is Escherichia coli, Pseudomonas aeruginosa, Bacillus subtilis, Staphylococcus aureus, Candida albicans, Candida parapsilosis. The experiment in a line: Radial diffusion assay (RDA). The test is classed as cell-based. As to conditions: peptide at 100 μM, 6 μl per well; 18-24 h at 37° C. Here is the method:
Radial diffusion assay. Essentially as described earlier, bacteria were grown to mid-logarithmic phase in 10 ml of full-strength (3% w/v) trypticase soy broth (TSB) (Becton-Dickinson). The microorganisms were then washed once with 10 mM Tris, pH 7.4. Subsequently, 4×10^6 cfu were added to 15 ml of the underlay agarose gel, consisting of 0.03% (w/v) TSB, 1% (w/v) low electroendosmosis type (EEO) agarose (Sigma-Aldrich) and 0.02% (v/v) Tween 20 (Sigma-Aldrich). The underlay was poured into a Ø 144 mm petri dish. After agarose solidification, 4 mm-diameter wells were punched and 6 μl peptide solution of required concentration added to each well. Plates were incubated at 37° C. for 3 h to allow peptide diffusion. The underlay gel was then covered with 15 ml of molten overlay (6% TSB and 1% Low-EEO agarose in distilled H2O). Antimicrobial activity of a peptide was visualized as a zone of clearing around each well after 18-24 h of incubation at 37° C.
Radial diffusion assay—Essentially as described earlier (23, 24), bacteria were grown to mid-logarithmic phase in 10 ml of full-strength (3% w/v) trypticase soy broth (TSB) (Becton-Dickinson). The microorganisms were then washed once with 10 mM Tris, pH 7.4. […]

The subject of test [3] is E. coli LPS shock in C57BL/6 mice. Nature of the test: LPS model in vivo (LPS-induced shock): survival, cytokines, lungs. As to conditions: for overall (proinflammatory) cytokine release: 20 h after LPS injection, peptide 500 μg; for survival: E. coli LPS i.p., peptide 500 μg i.p. 30 minutes after, followed 7 days. Further details: species or system mouse. Here is the method: Histochemistry—For immunostaining, wound biopsies were fixed in 10% formalin, rehydrated and embedded in paraffin. Sections of 5 μm thickness were placed on poly-lysine coated glass slides, deparaffinized in xylene and rehydrated in graded alcohols. The slides were then treated with Dako antigen retrieval solution (Dako) for 40 min at 97° C., and incubated for 24 h at room temperature in a 1:50 dilution of polyclonal antibodies against TFPI (Sigma-Aldrich, in TBS with 1% BSA, 5% goat serum, 0.05% Tween 20). After three 20 min washes in TBS with 0.05% Tween 20, the sections were incubated with alkaline phosphatase conjugated secondary goat anti-rabbit IgG (Dako) diluted 1:1000 in the same buffer as the primary antibody and incubated for another 24 hours, followed by three 20 min washes. Sections were developed with Vulcan Fast Red chromogen (Biocare Medical, Concord, Calif.) and the slides were counterstained with Harris Hematoxylin (EM Science, Gibbstown, N.J.). For histological evaluation of lungs derived from the in vivo LPS-models in mice, tissues were embedded as above, sectioned and stained with hematoxylin and eosin by routine procedures (Histocenter, Gothenburg, Sweden).
LPS model in vivo—Male C57BL/6 mice (8-10 weeks, 22+/−5 g), were injected intraperitoneally with 18 mg E. coli 0111:B4 LPS (Sigma) per kg of body weight. Thirty minutes after LPS injection, 0.5 mg GGL27, GGL27(S), DSE25 or buffer alone was injected intraperitoneally into the mice. Survival and status was followed during seven days. For blood collection and histochemistry, mice were sacrificed 20 h after LPS challenge, and lungs were removed and fixed. These experiments were approved by the Laboratory Animal Ethics Committee of Malmo/Lund.
Cytokine assay—The cytokines IL-6, IL-10, MCP-1, INF-γ, and TNF-α were measured in plasma from mice subjected to LPS (with or without peptide treatment) using the Cytometric bead array; mouse inflammation kit (Becton Dickinson AB) according to the manufacturer's instructions.

The test system of test [4] is RAW 264.7 macrophages. The experiment in a line: NO production in RAW 264.7 macrophages stimulated with LPS or other microbial products (Griess reaction). The test is classed as cell-based, mouse. The conditions noted are these: LPS from E. coli or P. aeruginosa; peptide at indicated concentrations (FIG. 41C). Here is the method:
Effects of various microbial products on macrophages in vitro and anti-inflammatory effects by various peptides of HCII and TFPI. 3.5×10^5 cells were seeded in 96-well tissue culture plates (Nunc, 167008) in phenol red-free DMEM (Gibco) supplemented with 10% FBS and antibiotics. Following 6 hours of incubation to permit adherence, cells were stimulated with 10 ng/mL E. coli (0111:B4) LPS (Sigma), lipoteichoic acid, peptioglycan, or zymosan, with and without peptides at the indicated doses (se figure legends and figures). The levels of NO in culture supernatants were determined after 24 hours from stimulation using the Griess reaction. Briefly, nitrite, a stable product of NO degradation, was measured by mixing 50 μl of culture supernatants with the same volume of Griess reagent (Sigma, G4410) and reading absorbance at 550 nm after 15 min. Phenol-red free DMEM with FBS and antibiotics were used as a blank. A standard curve was prepared using 0-80 μM sodium nitrite solutions in ddH20.
LPS effects on macrophages in vitro—[…] cells were seeded in 96-well tissue culture plates (Nunc, 167008) in phenol red-free DMEM (Gibco) supplemented with 10% FBS containing 1% Anti-Anti (Invitrogen). Following 20 hours of incubation to permit adherence, cells were washed and stimulated with 10 ng/ml E. coli (0111:B4) or P. aeruginosa LPS (Sigma), with and without the peptides GGL27, GGL27(S), and DSE25 of various doses. The levels of NO in culture supernatants were determined after 24 hours from stimulation using the Griess reaction (27). Briefly, nitrite, a stable product of NO degradation, was measured by mixing 50 μl of culture supernatants with the same volume of Griess reagent (Sigma, G4410) and reading absorbance at 550 nm after 15 min. Phenol-red free DMEM with FBS and antibiotics were used as a blank. A standard curve was prepared using 0-80 μM sodium nitrite solutions in ddH20.
For orientation: The Griess reaction detects nitrite, a stable product of nitric oxide.

Test [5] concerns bacteria. As to conditions: cited from earlier work.
For test [6], the system named is thrombin induced fibrin network formation in normal human plasma. The experiment in a line: Clotting assay: thrombin clotting time (TCT). The class given is biochemical. Here is the method:
(§1) Clotting assays. All clotting times were measured using an Amelung coagulometer. Activated partial thromboplastin time (aPTT) was measured by incubating the peptides diluted in sterile water at the indicated concentrations, with 100 μL citrated human plasma for 1 minute followed by the addition of 100 μL aPTT reagent (aPTT Automate, Diagnostica Stago) for 60 seconds at 37° C. Clotting was initiated by the addition of 100 μL of a 25-mM CaCl2 solution. In the prothombrin time assay (PT), clotting was initiated by the addition of 100 μL Thrombomax with calcium (PT reagent; Sigma-Aldrich). For measuring the thrombin clotting time (TCT), clotting was initiated by the addition of 100 μL Accuclot thrombin time reagent (TCT reagent; Sigma-Aldrich).

Test [7] deals with P. aeruginosa. Nature of the test: Viable count analysis, P. aeruginosa. The test is classed as cell-based, Pseudomonas aeruginosa. As to conditions: 20% human citrate plasma. Here is the method:
(§2) Viable count analysis—E. coli strains were grown to mid-logarithmic phase in Todd-Hewitt (TH). P. aeruginosa strains were grown in TH overnight. Bacteria were washed and diluted in 10 mM Tris, pH 7.4 containing 5 mM glucose. 2×10^6 cfu/ml bacteria were incubated in 50 μl, at 37° C. for 2 h with the C-terminal TFPI-derived peptides GGL27, TKR22, or LIK17 at the indicated concentrations. Additional experiments were performed in 10 mM Tris, pH 7.4, containing 0.15 M NaCl, either alone or with 20% normal or heat inactivated citrate-plasma. Serial dilutions of the incubation mixture were plated on TH agar, followed by incubation at 37° C. overnight and cfu determination.

In test [8] the test system is E. coli. The experiment in a line: Viable count analysis, E. coli. The class given is cell-based, Escherichia coli. Here is the method: Viable count analysis. E. coli ATCC 25922 bacteria were grown to mid-logarithmic phase in Todd-Hewitt (TH) medium. Bacteria were washed and diluted in 10 mM Tris, pH 7.4 containing 5 mM glucose. E. coli ATCC 25922 (50 μl; 2×10^6 cfu/ml) were incubated, at 37° C. for 2 h with peptides at the indicated concentrations. Other experiments with the TFPI-peptides and LL-37 were performed in 10 mM Tris, pH 7.4, containing also 0.15 M NaCl, with normal or heat inactivated 20% citrate-plasma (PP). Serial dilutions of the incubation mixture were plated on TH agar, followed by incubation at 37° C. overnight and cfu determination.
as §2

Test [9] relates to intrinsic pathway of coagulation in normal human plasma. The experiment in a line: Clotting assay: activated partial thromboplastin time (aPTT). The test is classed as biochemical. Here is the method:
as §1

C3a (complement anaphylatoxin C3a peptides in chronic wound fibrin slough) (human), sequence (P01024 672-748): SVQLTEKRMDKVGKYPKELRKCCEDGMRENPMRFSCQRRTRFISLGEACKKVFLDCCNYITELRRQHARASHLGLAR

For the substance “C-terminal TFPI peptides (endogenous C-terminal fragments of tissue factor pathway inhibitor found in human chronic wound fibrin slough) (from UniProt P10646 268-304)”, the percent of TFPI-molecules associated with C3a in test [1] turned out to be 70%.

For the substance “DSEEDEEHTIITDTELPPLKLMHSF (DSE25 control peptide) [control peptide from the N-terminus of TFPI, reference compound]”, the “antimicrobial activity (zones of clearance)” value in [2] was “no antimicrobial effects”. Besides, in test [3], the “overall (proinflammatory) cytokine release” value is on record as “nor significantly alter overall cytokine release” and the survival result is “nor significantly alter overall cytokine release, as well as survival”. Besides, in test [4], the “LPS-mediated NO release” value is reported as “did neither block NO release”.

For the substance “GGLISTSSSSSSQRVKIAYEEIFVKNM (GGL27(S) control peptide) [control peptide, central K/R residues of GGL27 replaced by S, reference compound]”, the “antimicrobial activity (zones of clearance)” value in [2] is “no antimicrobial effects”. Further, in [3], the “overall (proinflammatory) cytokine release” value is recorded as “nor significantly alter overall cytokine release” and the survival entry is “nor significantly alter overall cytokine release, as well as survival”. In addition, in [4], the “LPS-mediated NO release” value is reported as “did neither block NO release”.

As for “GKRKKKGKGLGKKRDPCLRKYK (Heparin-binding growth factor derived peptide) [GKR22]”, the “antibacterial activity at physiological conditions” value in test [5] is listed as “retain their antibacterial activity at physiological conditions”.

As for “HKHGHGHGKHKNKGKKNGKH (A kininogen-derived antimicrobial peptide) [HKH20]”, the “antibacterial activity at physiological conditions” value in test [5] was “retain their antibacterial activity at physiological conditions”.

Regarding “TKRKRKKQRVKIAYEEIFVKNM [TKR22, C-terminal peptide of TFPI]”, the “thrombin clotting time (TCT)” value in [6] is listed as “not significantly affected”. Further, in test [7], the “killing in human plasma compared with physiological buffer” value was “not enhanced”. In test [8] (0.15 M NaCl, 10 mM Tris, pH 7.4 with 20% human citrate plasma, versus buffer), the “bactericidal activity in presence of human plasma” value is listed as “significantly enhanced”. Besides, in test [8] (20% heat-inactivated human citrate plasma), the “bactericidal activity in heat-inactivated plasma” value is listed as “abolished the potentiation”. The “activated partial thromboplastin time (aPTT)” value in [9] is reported as “impair the intrinsic pathway of coagulation”.
